Source: patent US20170283804A1, “ANTISENSE COMPOUNDS AND USES THEREOF” (Ionis Pharmaceuticals, Inc., priority 2014, published 2017)
k = constrained ethyl (cEt); d = 2'-deoxy (DNA)

Columns and labels:
[1] = Liver transaminase levels (ALT, AST) in serum, Example 3; format: in vivo; conditions: mice serum
Excerpt: (§1) Each treatment group consisted of 4 animals.

[2] = tested on: mouse Metastasis associated lung adenocarcinoma transcript 1 (Malat-1); assay: In vivo dose response of Isis No. 556062 with and without FTY-720 pre-treatment (Malat-1 RNA, Example 3); conditions: mice, Liver
Procedure: as §1
Malat-1 RNA levels were determined as described in Example 2. The results are presented in Table 18 as average Malat-1 RNA levels for each treatment group. Results for groups that received Isis No. 556062 alone are relative the group that received only PBS, and results for groups that received Isis No. 556062 and 1 mg/kg FTY-720 are relative to the group that received 1 mg/kg FTY-720 and PBS in place of Isis No. 556062.

[3] = 0.3 mg/kg 556062 subcutaneous, FTY-720 dose 0 mg/kg
[4] = 0.3 mg/kg 556062 subcutaneous, FTY-720 dose 1 mg/kg
[5] = 1 mg/kg 556062 subcutaneous, FTY-720 dose 0 mg/kg
[6] = 1 mg/kg 556062 subcutaneous, FTY-720 dose 1 mg/kg
[7] = 3 mg/kg 556062 subcutaneous, FTY-720 dose 0 mg/kg
[8] = 3 mg/kg 556062 subcutaneous, FTY-720 dose 1 mg/kg
[9] = 9 mg/kg 556062 subcutaneous, FTY-720 dose 0 mg/kg
[10] = 9 mg/kg 556062 subcutaneous, FTY-720 dose 1 mg/kg

What does the source list for “556062 (antisense GGCTTAATGCAGCATT; sugars from the 5' end k3 d10 k3, all phosphorothioate, methylation of C not given here) [compound 556062]”?
ALT [1, 3]: 24 U/L; AST [1, 3]: 48 U/L; ALT [1, 4]: 17 U/L; AST [1, 4]: 48 U/L; ALT [1, 5]: 56 U/L; AST [1, 5]: 50 U/L; ALT [1, 6]: 18 U/L; AST [1, 6]: 45 U/L; ALT [1, 7]: 24 U/L; AST [1, 7]: 58 U/L; ALT [1, 8]: 25 U/L; AST [1, 8]: 40 U/L; ALT [1, 9]: 31 U/L; AST [1, 9]: 71 U/L; ALT [1, 10]: 24 U/L; AST [1, 10]: 46 U/L; Average Malat-1 RNA [2, 3]: 80 % control; Average Malat-1 RNA ([2]; 0.3 mg/kg 556062 subcutaneous, FTY-720 dose 1 mg/kg i.p. daily): 63 % control; Average Malat-1 RNA [2, 5]: 49 % control; Average Malat-1 RNA ([2]; 1 mg/kg 556062 subcutaneous, FTY-720 dose 1 mg/kg i.p. daily): 36 % control; Average Malat-1 RNA [2, 7]: 18 % control; Average Malat-1 RNA ([2]; 3 mg/kg 556062 subcutaneous, FTY-720 dose 1 mg/kg i.p. daily): 19 % control; Average Malat-1 RNA [2, 9]: 11 % control; Average Malat-1 RNA ([2]; 9 mg/kg 556062 subcutaneous, FTY-720 dose 1 mg/kg i.p. daily): 6 % control
